Reference: ChEMBL document CHEMBL3885881, “DrugMatrix”

Species: Rattus norvegicus
Assay: DrugMatrix - Regimen: Daily Repeat
Assay type: toxicity, organism-based, Sprague-Dawley
Parameters: regimen Daily Repeat, gender Male, age 6-8 weeks
Conditions: in vivo, po, 17.5 mg/kg, route oral GAVAGE, dose level Low, vehicle 100 % SALINE; for ABSOLUTE BASOPHIL / ABSOLUTE EOSINOPHIL / ABSOLUTE LYMPHOCYTE / ABSOLUTE MONOCYTE / ABSOLUTE SEGMENTED NEUTROPHIL / BASOPHIL / EOSINOPHIL / ERYTHROCYTE COUNT / HEMATOCRIT / HEMOGLOBIN / LEUKOCYTE COUNT / LYMPHOCYTE / MEAN CORPUSCULAR HEMOGLOBIN / MEAN CORPUSCULAR HEMOGLOBIN CONCENTRATION / MEAN CORPUSCULAR VOLUME / MONOCYTE / NEUTROPHIL / NUCLEATED RED BLOOD CELLS / PLATELET COUNT: tissue Blood; for ALANINE AMINOTRANSFERASE / ALBUMIN / ALKALINE PHOSPHATASE / ASPARTATE AMINOTRANSFERASE / BLOOD UREA NITROGEN / CARBON DIOXIDE / CHLORIDE / CHOLESTEROL / CREATINE PHOSPHOKINASE / CREATININE / GLUCOSE / LACTATE DEHYDROGENASE / LIPASE / PHOSPHORUS / POTASSIUM / SODIUM / TOTAL BILIRUBIN / TOTAL PROTEIN / URIC ACID: tissue Plasma

NC(=O)C[S+]([O-])C(c1ccccc1)c1ccccc1 (stereo unspecified) [MODAFINIL]
ABSOLUTE BASOPHIL (72 h, time 3 day): 0 CELLS/uL | ABSOLUTE EOSINOPHIL (72 h, time 3 day): 0 CELLS/uL | ABSOLUTE LYMPHOCYTE (72 h, time 3 day): 8269.33 CELLS/uL | ABSOLUTE MONOCYTE (72 h, time 3 day): 22 CELLS/uL | ABSOLUTE SEGMENTED NEUTROPHIL (72 h, time 3 day): 608.67 CELLS/uL | BASOPHIL (72 h, time 3 day): 0% | EOSINOPHIL (72 h, time 3 day): 0% | ERYTHROCYTE COUNT (72 h, time 3 day): 5.35 x10E6/uL | HEMATOCRIT (72 h, time 3 day): 32.93% | HEMOGLOBIN (72 h, time 3 day): 12.87 G/DL | LEUKOCYTE COUNT (72 h, time 3 day): 8.9 x10E3/uL | LYMPHOCYTE (72 h, time 3 day): 93% | MEAN CORPUSCULAR HEMOGLOBIN (72 h, time 3 day): 24.07 pg | MEAN CORPUSCULAR HEMOGLOBIN CONCENTRATION (72 h, time 3 day): 39.03 G/DL | MEAN CORPUSCULAR VOLUME (72 h, time 3 day): 61.67 fL | MONOCYTE (72 h, time 3 day): 0.33% | NEUTROPHIL (72 h, time 3 day): 6.67% | NUCLEATED RED BLOOD CELLS (72 h, time 3 day): 0 /100WBC | PLATELET COUNT (72 h, time 3 day): 1018.67 x10E3/uL | ALANINE AMINOTRANSFERASE (72 h, time 3 day): 51.33 u/L | ALBUMIN (72 h, time 3 day): 4.2 G/DL | ALKALINE PHOSPHATASE (72 h, time 3 day): 290.33 u/L | ASPARTATE AMINOTRANSFERASE (72 h, time 3 day): 79.67 u/L | BLOOD UREA NITROGEN (72 h, time 3 day): 14 mg/dL | CARBON DIOXIDE (72 h, time 3 day): 27.67 mmol/L | CHLORIDE (72 h, time 3 day): 100.33 MEQ/L | CHOLESTEROL (72 h, time 3 day): 66 mg/dL | CREATINE PHOSPHOKINASE (72 h, time 3 day): 304.67 u/L | CREATININE (72 h, time 3 day): 0.22 mg/dL | GLUCOSE (72 h, time 3 day): 157.67 mg/dL | LACTATE DEHYDROGENASE (72 h, time 3 day): 92.67 u/L | LIPASE (72 h, time 3 day): 11 u/L | PHOSPHORUS (72 h, time 3 day): 11.77 mg/dL | POTASSIUM (72 h, time 3 day): 5.21 MEQ/L | SODIUM (72 h, time 3 day): 144.33 MEQ/L | TOTAL BILIRUBIN (72 h, time 3 day): 0.17 mg/dL | TOTAL PROTEIN (72 h, time 3 day): 5.93 G/DL | URIC ACID (72 h, time 3 day): 0.7 mg/dL | ABSOLUTE BASOPHIL (120 h, time 5 day): 0 CELLS/uL | ABSOLUTE EOSINOPHIL (120 h, time 5 day): 0 CELLS/uL | ABSOLUTE LYMPHOCYTE (120 h, time 5 day): 7020.33 CELLS/uL | ABSOLUTE MONOCYTE (120 h, time 5 day): 0 CELLS/uL | ABSOLUTE SEGMENTED NEUTROPHIL (120 h, time 5 day): 813 CELLS/uL | BASOPHIL (120 h, time 5 day): 0% | EOSINOPHIL (120 h, time 5 day): 0% | ERYTHROCYTE COUNT (120 h, time 5 day): 5.19 x10E6/uL | HEMATOCRIT (120 h, time 5 day): 32.03% | HEMOGLOBIN (120 h, time 5 day): 12.9 G/DL | LEUKOCYTE COUNT (120 h, time 5 day): 7.83 x10E3/uL | LYMPHOCYTE (120 h, time 5 day): 90% | MEAN CORPUSCULAR HEMOGLOBIN (120 h, time 5 day): 24.93 pg | MEAN CORPUSCULAR HEMOGLOBIN CONCENTRATION (120 h, time 5 day): 40.27 G/DL | MEAN CORPUSCULAR VOLUME (120 h, time 5 day): 61.83 fL | MONOCYTE (120 h, time 5 day): 0% | NEUTROPHIL (120 h, time 5 day): 10% | NUCLEATED RED BLOOD CELLS (120 h, time 5 day): 0 /100WBC | PLATELET COUNT (120 h, time 5 day): 1105.67 x10E3/uL | ALANINE AMINOTRANSFERASE (120 h, time 5 day): 54.33 u/L | ALBUMIN (120 h, time 5 day): 4.27 G/DL | ALKALINE PHOSPHATASE (120 h, time 5 day): 413 u/L | ASPARTATE AMINOTRANSFERASE (120 h, time 5 day): 84 u/L | BLOOD UREA NITROGEN (120 h, time 5 day): 11 mg/dL | CARBON DIOXIDE (120 h, time 5 day): 33.67 mmol/L | CHLORIDE (120 h, time 5 day): 98.33 MEQ/L | CHOLESTEROL (120 h, time 5 day): 73 mg/dL | CREATINE PHOSPHOKINASE (120 h, time 5 day): 441.67 u/L | CREATININE (120 h, time 5 day): 0.39 mg/dL | GLUCOSE (120 h, time 5 day): 133 mg/dL | LACTATE DEHYDROGENASE (120 h, time 5 day): 119.33 u/L | LIPASE (120 h, time 5 day): 10.67 u/L | PHOSPHORUS (120 h, time 5 day): 10.57 mg/dL | POTASSIUM (120 h, time 5 day): 6.11 MEQ/L | SODIUM (120 h, time 5 day): 143.73 MEQ/L | TOTAL BILIRUBIN (120 h, time 5 day): 0.13 mg/dL | TOTAL PROTEIN (120 h, time 5 day): 6.13 G/DL | URIC ACID (120 h, time 5 day): 0.7 mg/dL
